Measurements from patent US10125111B2, “Benzofuran compounds for the treatment of hepatitis C” (BRISTOL-MYERS SQUIBB COMPANY, priority 2015, dated 2018).

These compounds were tested on genotype 1b (Con-1) HCV replicon (assay: HCV Replicon Luciferase Assay). Settings: Hepatitis C virus, 72 h; Huh-7 genotype 1b replicon, Renilla luciferase, 3 days incubation; read-out: EC50 1b (class).
Type: cell-based
Method: The cell lines used to evaluate compounds consist of a human hepatocyte derived cell line (Huh-7) that constitutively expresses a genotype 1b (Con-1) HCV replicon or a genotype 1b (Con-1) HCV replicon with an asparagine replacing the cysteine at amino acid 316, or a genotype 2a (JFH-1) replicon, containing a Renilla luciferase reporter gene. These cells were maintained in Dulbecco's modified Eagle medium (DMEM) containing 10% FBS, 100 U/mL penicillin/streptomycin and 1.0 mg/mL G418.
To evaluate compound efficacy, titrated compounds were transferred to sterile 384-well tissue culture treated plates, and the plates were seeded with HCV replicon cells (50 μL at a density of 2.4×10^3 cells/well) in DMEM containing 4% FBS (final DMSO concentration at 0.5%). After 3 days incubation at 37° C., cells were analyzed for Renilla Luciferase activity using the EnduRen substrate (Promega cat #E6485) according to the manufacturer's directions. Briefly, the EnduRen substrate was diluted in DMEM and then added to the plates to a final concentration of 7.5 μM. The plates were incubated for at least 1 h at 37° C. then read on a Viewlux Imager (PerkinElmer) using a luminescence program. The 50% effective concentration (EC50) was calculated using the four-parameter logistic Formula noted above.
Compound EC50 data is expressed as A: <100 nM; B=100-1000 nM; C>1000 nM).

Row | SMILES | EC50 [µM]
1 | CNC(=O)c1c(-c2ccc(F)cc2)oc2cc(N(CCCF)S(C)(=O)=O)c(-c3cccc(C(=O)NCC(F)(F)F)c3)cc12 [Compound 4010] | < 0.1
2 | CNC(=O)c1c(-c2ccc(F)cc2)oc2cc(N(CCCF)S(C)(=O)=O)c(-c3cccc(C(=O)NCC(F)(F)C(F)(F)F)c3)cc12 [Compound 4007] | < 0.1
3 | CNC(=O)c1c(-c2ccc(F)cc2)oc2cc(N(CCCF)S(C)(=O)=O)c(-c3cccc(C(=O)NCC(C)(C)CO)c3)cc12 [Compound 4017] | < 0.1
4 | CNC(=O)c1c(-c2ccc(F)cc2)oc2cc(N(CCF)S(C)(=O)=O)c(-c3cccc(C(=O)NC(C4CC4)C4CC4)c3)cc12 [Compound 3010] | < 0.1
5 | CCCC1CN(C(=O)c2ccccc2)CCN1C(=O)c1cccc(-c2cc3c(C(=O)NC)c(-c4ccc(F)cc4)oc3cc2N(CCF)S(C)(=O)=O)c1 (centres unmarked) [Compound 3043] | < 0.1
6 | CNC(=O)c1c(-c2ccc(F)cc2)oc2cc(N(CCF)S(C)(=O)=O)c(-c3cccc(C(=O)N4CCC(C)(C)C4)c3)cc12 [Compound 3017] | < 0.1
7 | CNC(=O)c1c(-c2ccc(F)cc2)oc2cc(N(CCF)S(C)(=O)=O)c(-c3cccc(C(=O)N4CCC(c5ccc(F)cc5)C4)c3)cc12 (centres unmarked) [Compound 3034] | < 0.1
8 | CNC(=O)c1c(-c2ccc(F)cc2)oc2cc(N(CC3CC3)S(C)(=O)=O)c(-c3cccc(C(=O)OC)c3)cc12 [Compound 2001] | < 0.1
9 | CNC(=O)c1c(-c2ccc(F)cc2)oc2cc(NCCCF)c(-c3cccc(C(=O)NC(C)(C)C(F)(F)F)c3)cc12 [Compound 5005] | < 0.1
10 | CNC(=O)c1c(-c2ccc(F)cc2)oc2cc(N(CCF)S(C)(=O)=O)c(-c3cccc(C(=O)N[C@H](C)C(F)(F)F)c3)cc12 [Compound 3021] | < 0.1
11 | CNC(=O)c1c(-c2ccc(F)cc2)oc2cc(N(CCF)S(C)(=O)=O)c(-c3cccc(C(=O)N4CCC[C@H]4C(=O)OC(C)(C)C)c3)cc12 [Compound 3029] | < 0.1
12 | CNC(=O)c1c(-c2ccc(F)cc2)oc2cc(N(CCF)S(C)(=O)=O)c(-c3cccc(C(=O)N4CCN(c5cccnc5)CC4)c3)cc12 [Compound 3032] | > 1
13 | CNC(=O)c1c(-c2ccc(F)cc2)oc2cc(N(CCF)S(C)(=O)=O)c(-c3cccc(C(=O)N4CCCC4C)c3)cc12 (centres unmarked) [Compound 3024] | < 0.1
14 | CNC(=O)c1c(-c2ccc(F)cc2)oc2cc(N(CCF)S(C)(=O)=O)c(-c3cccc(C(=O)NC(C)(C)C#N)c3)cc12 [Compound 3005] | < 0.1
15 | CNC(=O)c1c(-c2ccc(F)cc2)oc2cc(N(CCCF)S(C)(=O)=O)c(-c3cccc(C(=O)NC(C4CC4)C4CC4)c3)cc12 [Compound 4025] | < 0.1
16 | CNC(=O)c1c(-c2ccc(F)cc2)oc2cc(N(C(F)F)S(C)(=O)=O)c(-c3cccc(C(=O)O)c3)cc12 [Compound 6002] | > 1
17 | CNC(=O)c1c(-c2ccc(F)cc2)oc2cc(N(CC=C(F)F)S(C)(=O)=O)c(-c3cccc(C(=O)OC)c3)cc12 [Compound 8001] | < 0.1
18 | CNC(=O)c1c(-c2ccc(F)cc2)oc2cc(N(CCF)S(C)(=O)=O)c(-c3cccc(C(=O)NC(C)(C)C(F)(F)F)c3)cc12 [Compound 3003] | < 0.1
19 | CNC(=O)c1c(-c2ccc(F)cc2)oc2cc(N(CCCF)S(C)(=O)=O)c(-c3cccc(C(=O)NC(C)(C)C(C)(C)C)c3)cc12 [Compound 4026] | < 0.1
20 | CNC(=O)c1c(-c2ccc(F)cc2)oc2cc(N(CCF)S(C)(=O)=O)c(-c3cccc(C(=O)N4CC[C@H](O)C4)c3)cc12 [Compound 3037] | > 1
21 | CNC(=O)c1c(-c2ccc(F)cc2)oc2cc(N(CCF)S(C)(=O)=O)c(-c3cccc(C(=O)N4CCN(c5ccccc5)CC4)c3)cc12 [Compound 3025] | < 0.1
22 | CNC(=O)c1c(-c2ccc(F)cc2)oc2cc(N(CCF)S(C)(=O)=O)c(-c3cccc(C(=O)NCC(F)(F)C(F)(F)F)c3)cc12 [Compound 3012] | < 0.1
23 | CNC(=O)c1c(-c2ccc(F)cc2)oc2cc(N(CCF)S(C)(=O)=O)c(-c3cccc(C(=O)N4CCCC4c4cccnc4)c3)cc12 (centres unmarked) [Compound 3022] | < 0.1
24 | C#CC(C)(C)NC(=O)c1cccc(-c2cc3c(C(=O)NC)c(-c4ccc(F)cc4)oc3cc2N(CCCF)S(C)(=O)=O)c1 [Compound 4012] | < 0.1
25 | CNC(=O)c1c(-c2ccc(F)cc2)oc2cc(N(CCF)S(C)(=O)=O)c(-c3cccc(C(=O)N4CCN(c5ccc(Cl)cc5)CC4)c3)cc12 [Compound 3020] | < 0.1

Same assay, conditions: Hepatitis C virus, 72 h; Huh-7 genotype 1b replicon, Renilla luciferase, 3 days incubation; read-out: EC50 (uM) 1b

Row | SMILES | EC50 [µM]
26 | CNC(=O)c1c(-c2ccc(F)cc2)oc2cc(N(CCCF)S(C)(=O)=O)c(-c3cccc(C(=O)NCC(F)(F)C(F)(F)F)c3)cc12 [Compound 4007] | 0.0053
27 | CNC(=O)c1c(-c2ccc(F)cc2)oc2cc(N(CCF)S(C)(=O)=O)c(-c3cccc(C(=O)NC(C4CC4)C4CC4)c3)cc12 [Compound 3010] | 0.0056
28 | CNC(=O)c1c(-c2ccc(F)cc2)oc2cc(N(CCF)S(C)(=O)=O)c(-c3cccc(C(=O)N4CCC(C)(C)C4)c3)cc12 [Compound 3017] | 0.0063
29 | CNC(=O)c1c(-c2ccc(F)cc2)oc2cc(N(CCF)S(C)(=O)=O)c(-c3cccc(C(=O)N4CCC(c5ccc(F)cc5)C4)c3)cc12 (centres unmarked) [Compound 3034] | 0.0117
30 | CNC(=O)c1c(-c2ccc(F)cc2)oc2cc(N(CCF)S(C)(=O)=O)c(-c3cccc(C(=O)N4CCN(c5cccnc5)CC4)c3)cc12 [Compound 3032] | 2.64
31 | CNC(=O)c1c(-c2ccc(F)cc2)oc2cc(N(CCF)S(C)(=O)=O)c(-c3cccc(C(=O)NC(C)(C)C#N)c3)cc12 [Compound 3005] | 0.005
32 | CNC(=O)c1c(-c2ccc(F)cc2)oc2cc(N(C(F)F)S(C)(=O)=O)c(-c3cccc(C(=O)O)c3)cc12 [Compound 6002] | > 10
33 | CNC(=O)c1c(-c2ccc(F)cc2)oc2cc(N(CCF)S(C)(=O)=O)c(-c3cccc(C(=O)NCC(F)(F)C(F)(F)F)c3)cc12 [Compound 3012] | 0.0032
34 | C#CC(C)(C)NC(=O)c1cccc(-c2cc3c(C(=O)NC)c(-c4ccc(F)cc4)oc3cc2N(CCCF)S(C)(=O)=O)c1 [Compound 4012] | 0.008
35 | CNC(=O)c1c(-c2ccc(F)cc2)oc2cc(N(CCF)S(C)(=O)=O)c(-c3cccc(C(=O)N4CCN(c5ccc(Cl)cc5)CC4)c3)cc12 [Compound 3020] | 0.0094
